{"source": "ChEMBL document CHEMBL3885881", "about": "“DrugMatrix”", "species_on_record": "Rattus norvegicus", "test": "DrugMatrix - Regimen: Daily Repeat", "type": "toxicity, organism-based, Sprague-Dawley", "design": "regimen Daily Repeat, gender Male, age 6-8 weeks", "conditions": "in vivo, ip, route intraperitoneal, vehicle 100 % SALINE; for ABSOLUTE BASOPHIL / ABSOLUTE EOSINOPHIL / ABSOLUTE LYMPHOCYTE / ABSOLUTE MONOCYTE / ABSOLUTE SEGMENTED NEUTROPHIL / BASOPHIL / EOSINOPHIL / ERYTHROCYTE COUNT / HEMATOCRIT / HEMOGLOBIN / LEUKOCYTE COUNT / LYMPHOCYTE / MEAN CORPUSCULAR HEMOGLOBIN / MEAN CORPUSCULAR HEMOGLOBIN CONCENTRATION / MEAN CORPUSCULAR VOLUME / MONOCYTE / NEUTROPHIL / PLATELET COUNT: tissue Blood", "key": {"[1]": {"conditions": "0 mg/kg, 120 h, dose level Control, time 5 day"}, "[2]": {"conditions": "0 mg/kg, 120 h, tissue Plasma, dose level Control, time 5 day"}, "[3]": {"conditions": "0 mg/kg, […], dose level Control, time 14 day"}, "[4]": {"conditions": "0 mg/kg, […], dose level Control, time 28 day"}, "[5]": {"conditions": "0 mg/kg, […], tissue Plasma, dose level Control, time 14 day"}, "[6]": {"conditions": "0 mg/kg, […], tissue Plasma, dose level Control, time 28 day"}, "[7]": {"conditions": "2 mg/kg, 120 h, dose level High, time 5 day"}}, "note": "“And” between values parts separate entries of the source, which are not always exact repeats. Equal entries are not always repeated.", "data": [{"substance": "LEAD (II) ACETATE", "values": [{"measurement": "ABSOLUTE BASOPHIL", "setting": "[1]", "result": 32, "unit": "cells/µL"}, {"measurement": "ABSOLUTE EOSINOPHIL", "setting": "[1]", "result": 110, "unit": "cells/µL"}, {"measurement": "ABSOLUTE LYMPHOCYTE", "setting": "[1]", "result": 6630, "unit": "cells/µL"}, {"measurement": "ABSOLUTE MONOCYTE", "setting": "[1]", "result": 140, "unit": "cells/µL"}, {"measurement": "ABSOLUTE SEGMENTED NEUTROPHIL", "setting": "[1]", "result": 1170, "unit": "cells/µL"}, {"measurement": "BASOPHIL", "setting": "[1]", "result": "0.38% and 0.35%"}, {"measurement": "EOSINOPHIL", "setting": "[1]", "result": "1.28% and 0.62%"}, {"measurement": "ERYTHROCYTE COUNT", "setting": "[1]", "result": "7.45 x10E6/uL and 7.26 x10E6/uL"}, {"measurement": "HEMATOCRIT", "setting": "[1]", "result": "45.74% and 47.97%"}, {"measurement": "HEMOGLOBIN", "setting": "[1]", "result": "14.72 G/DL and 15.38 G/DL"}, {"measurement": "LEUKOCYTE COUNT", "setting": "[1]", "result": "8.11 x10E3/uL and 8.68 x10E3/uL"}, {"measurement": "LYMPHOCYTE", "setting": "[1]", "result": "81.3% and 86.77%"}, {"measurement": "MEAN CORPUSCULAR HEMOGLOBIN", "setting": "[1]", "result": "19.76 pg and 21.18 pg"}, {"measurement": "MEAN CORPUSCULAR HEMOGLOBIN CONCENTRATION", "setting": "[1]", "result": "32.16 G/DL and 32.05 G/DL"}, {"measurement": "MEAN CORPUSCULAR VOLUME", "setting": "[1]", "result": "61.38 fL and 66.15 fL"}, {"measurement": "MONOCYTE", "setting": "[1]", "result": "1.76% and 1.57%"}, {"measurement": "NEUTROPHIL", "setting": "[1]", "result": "14.9% and 9.53%"}, {"measurement": "PLATELET COUNT", "setting": "[1]", "result": "1322.4 x10E3/uL and 1786 x10E3/uL"}, {"measurement": "ALANINE AMINOTRANSFERASE", "setting": "[2]", "result": "25.8 u/L and 20.5 u/L"}, {"measurement": "ALBUMIN", "setting": "[2]", "result": "3.64 G/DL and 4.35 G/DL"}, {"measurement": "ALKALINE PHOSPHATASE", "setting": "[2]", "result": 300, "unit": "u/L"}, {"measurement": "ASPARTATE AMINOTRANSFERASE", "setting": "[2]", "result": "81.4 u/L and 86.75 u/L"}, {"measurement": "BLOOD UREA NITROGEN", "setting": "[2]", "result": "14.4 mg/dL and 17 mg/dL"}, {"measurement": "CARBON DIOXIDE", "setting": "[2]", "result": 29, "unit": "mmol/L"}, {"measurement": "CHOLESTEROL", "setting": "[2]", "result": "69.2 mg/dL and 51.25 mg/dL"}, {"measurement": "CREATINE PHOSPHOKINASE", "setting": "[2]", "result": "303.2 u/L and 384.75 u/L"}, {"measurement": "CREATININE", "setting": "[2]", "result": "0.56 mg/dL and 0.47 mg/dL"}, {"measurement": "GLUCOSE", "setting": "[2]", "result": "125.4 mg/dL and 128.75 mg/dL"}, {"measurement": "LACTATE DEHYDROGENASE", "setting": "[2]", "result": "105.4 u/L and 145 u/L"}, {"measurement": "LIPASE", "setting": "[2]", "result": "22.4 u/L and 13.25 u/L"}, {"measurement": "PHOSPHORUS", "setting": "[2]", "result": 11.8, "unit": "mg/dL"}, {"measurement": "POTASSIUM", "setting": "[2]", "result": "5.52 MEQ/L and 6.58 MEQ/L"}, {"measurement": "SODIUM", "setting": "[2]", "result": "147 MEQ/L and 151 MEQ/L"}, {"measurement": "TOTAL BILIRUBIN", "setting": "[2]", "result": "0.2 mg/dL and 0.33 mg/dL"}, {"measurement": "TOTAL PROTEIN", "setting": "[2]", "result": "6.1 G/DL and 6.53 G/DL"}, {"measurement": "URIC ACID", "setting": "[2]", "result": "1.06 mg/dL and 1.95 mg/dL"}, {"measurement": "ABSOLUTE BASOPHIL", "setting": "[3]", "result": 130, "unit": "cells/µL"}, {"measurement": "ABSOLUTE EOSINOPHIL", "setting": "[3]", "result": 140, "unit": "cells/µL"}, {"measurement": "ABSOLUTE LYMPHOCYTE", "setting": "[3]", "result": 13500, "unit": "cells/µL"}, {"measurement": "ABSOLUTE MONOCYTE", "setting": "[3]", "result": 400, "unit": "cells/µL"}, {"measurement": "ABSOLUTE SEGMENTED NEUTROPHIL", "setting": "[3]", "result": 2330, "unit": "cells/µL"}, {"measurement": "HEMATOCRIT", "setting": "[3]", "result": 45.98, "unit": "%"}, {"measurement": "HEMOGLOBIN", "setting": "[3]", "result": 15.17, "unit": "G/DL"}, {"measurement": "MEAN CORPUSCULAR VOLUME", "setting": "[3]", "result": 59.4, "unit": "fL"}, {"measurement": "NEUTROPHIL", "setting": "[3]", "result": 14.14, "unit": "%"}, {"measurement": "ABSOLUTE BASOPHIL", "setting": "[4]", "result": 91, "unit": "cells/µL"}, {"measurement": "ABSOLUTE EOSINOPHIL", "setting": "[4]", "result": 110, "unit": "cells/µL"}, {"measurement": "ABSOLUTE LYMPHOCYTE", "setting": "[4]", "result": 9910, "unit": "cells/µL"}, {"measurement": "ABSOLUTE MONOCYTE", "setting": "[4]", "result": 210, "unit": "cells/µL"}, {"measurement": "ABSOLUTE SEGMENTED NEUTROPHIL", "setting": "[4]", "result": 1560, "unit": "cells/µL"}, {"measurement": "BASOPHIL", "setting": "[4]", "result": 0.77, "unit": "%"}, {"measurement": "EOSINOPHIL", "setting": "[4]", "result": 0.92, "unit": "%"}, {"measurement": "ERYTHROCYTE COUNT", "setting": "[4]", "result": 8.21, "unit": "x10E6/uL"}, {"measurement": "HEMATOCRIT", "setting": "[4]", "result": 47.53, "unit": "%"}, {"measurement": "HEMOGLOBIN", "setting": "[4]", "result": 15.65, "unit": "G/DL"}, {"measurement": "LEUKOCYTE COUNT", "setting": "[4]", "result": 11.91, "unit": "x10E3/uL"}, {"measurement": "LYMPHOCYTE", "setting": "[4]", "result": 83.34, "unit": "%"}, {"measurement": "MEAN CORPUSCULAR HEMOGLOBIN", "setting": "[4]", "result": 19.07, "unit": "pg"}, {"measurement": "MEAN CORPUSCULAR HEMOGLOBIN CONCENTRATION", "setting": "[4]", "result": 32.93, "unit": "G/DL"}, {"measurement": "MEAN CORPUSCULAR VOLUME", "setting": "[4]", "result": 57.9, "unit": "fL"}, {"measurement": "MONOCYTE", "setting": "[4]", "result": 1.68, "unit": "%"}, {"measurement": "NEUTROPHIL", "setting": "[4]", "result": 12.97, "unit": "%"}, {"measurement": "PLATELET COUNT", "setting": "[4]", "result": 1323.8, "unit": "x10E3/uL"}, {"measurement": "ALBUMIN", "setting": "[5]", "result": 3.66, "unit": "G/DL"}, {"measurement": "CARBON DIOXIDE", "setting": "[5]", "result": 25, "unit": "mmol/L"}, {"measurement": "CHLORIDE", "setting": "[5]", "result": 107, "unit": "MEQ/L"}, {"measurement": "CREATINE PHOSPHOKINASE", "setting": "[5]", "result": 410.25, "unit": "u/L"}, {"measurement": "SODIUM", "setting": "[5]", "result": 149.2, "unit": "MEQ/L"}, {"measurement": "URIC ACID", "setting": "[5]", "result": 0.94, "unit": "mg/dL"}, {"measurement": "ALANINE AMINOTRANSFERASE", "setting": "[6]", "result": 30, "unit": "u/L"}, {"measurement": "ALBUMIN", "setting": "[6]", "result": 3.71, "unit": "G/DL"}, {"measurement": "ALKALINE PHOSPHATASE", "setting": "[6]", "result": 186.8, "unit": "u/L"}, {"measurement": "ASPARTATE AMINOTRANSFERASE", "setting": "[6]", "result": 78.2, "unit": "u/L"}, {"measurement": "BLOOD UREA NITROGEN", "setting": "[6]", "result": 14.2, "unit": "mg/dL"}, {"measurement": "CHOLESTEROL", "setting": "[6]", "result": 44.9, "unit": "mg/dL"}, {"measurement": "CREATINE PHOSPHOKINASE", "setting": "[6]", "result": 334.3, "unit": "u/L"}, {"measurement": "CREATININE", "setting": "[6]", "result": 0.6, "unit": "mg/dL"}, {"measurement": "GLUCOSE", "setting": "[6]", "result": 147.2, "unit": "mg/dL"}, {"measurement": "LACTATE DEHYDROGENASE", "setting": "[6]", "result": 123.1, "unit": "u/L"}, {"measurement": "LIPASE", "setting": "[6]", "result": 9.6, "unit": "u/L"}, {"measurement": "PHOSPHORUS", "setting": "[6]", "result": 10.01, "unit": "mg/dL"}, {"measurement": "POTASSIUM", "setting": "[6]", "result": 6.57, "unit": "MEQ/L"}, {"measurement": "SODIUM", "setting": "[6]", "result": 149.5, "unit": "MEQ/L"}, {"measurement": "TOTAL BILIRUBIN", "setting": "[6]", "result": 0.21, "unit": "mg/dL"}, {"measurement": "TOTAL PROTEIN", "setting": "[6]", "result": 6.66, "unit": "G/DL"}, {"measurement": "URIC ACID", "setting": "[6]", "result": 1.26, "unit": "mg/dL"}, {"measurement": "ABSOLUTE BASOPHIL", "setting": "[7]", "result": 120, "unit": "cells/µL"}, {"measurement": "ABSOLUTE EOSINOPHIL", "setting": "[7]", "result": 150, "unit": "cells/µL"}, {"measurement": "ABSOLUTE LYMPHOCYTE", "setting": "[7]", "result": 10100, "unit": "cells/µL"}, {"measurement": "ABSOLUTE MONOCYTE", "setting": "[7]", "result": 250, "unit": "cells/µL"}, {"measurement": "ABSOLUTE SEGMENTED NEUTROPHIL", "setting": "[7]", "result": 2470, "unit": "cells/µL"}]}]}
